Reference: PubChem BioAssay AID248 (DTP/NCI, 2004)
Several values for one entry are separate records, joined by “and”; a condition that tells them apart may be missing. Identical values can stand only once. Inconclusive results and toxic doses are left out. Cut-off read from the data, not from the text of the source: active = T/C of 150% or more; inactive = T/C below 125%.

Tested on: L1210 leukemia ip in BDF1 mice, survival T/C
Test: NCI In Vivo Anticancer Drug Screen. Data for tumor model L1210 Leukemia (intraperitoneal) in B6D2F1 (BDF1) mice
Details: endpoint: mean survival time, higher = longer survival
Outline: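 Value reflects the ratio of survival in compound-treated mice to survival in vehicle-treated controls, with both groups carrying the same transplanted tumor.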

[1] = dose: 100.0 mg/kg/injection, schedule: Q04DX003 (ip), vehicle: saline with Tween-80
[2] = dose: 400.0 mg/kg/injection, schedule: Q04DX003 (ip), vehicle: saline with Tween-80
[3] = dose: 100.0 mg/kg/injection, schedule: Q04DX002 (ip), vehicle: Klucel (hydroxypropylcellulose) (HPC)
[4] = dose: 200.0 mg/kg/injection, schedule: Q04DX002 (ip), vehicle: Klucel (hydroxypropylcellulose) (HPC)
[5] = dose: 400.0 mg/kg/injection, schedule: Q04DX002 (ip), vehicle: Klucel (hydroxypropylcellulose) (HPC)
[6] = dose: 100.0 mg/kg/injection, schedule: Q04DX003 (ip), vehicle: Klucel (hydroxypropylcellulose) (HPC)
[7] = dose: 200.0 mg/kg/injection, schedule: Q04DX003 (ip), vehicle: Klucel (hydroxypropylcellulose) (HPC)
[8] = dose: 400.0 mg/kg/injection, schedule: Q04DX003 (ip), vehicle: Klucel (hydroxypropylcellulose) (HPC)
[9] = dose: 100.0 mg/kg/injection, schedule: Q01DX001 (ip), vehicle: saline
[10] = dose: 200.0 mg/kg/injection, schedule: Q01DX001 (ip), vehicle: saline
[11] = dose: 400.0 mg/kg/injection, schedule: Q01DX001 (ip), vehicle: saline
[12] = dose: 100.0 mg/kg/injection, schedule: Q01DX009 (ip), vehicle: saline with Tween-80
[13] = dose: 200.0 mg/kg/injection, schedule: Q01DX009 (ip), vehicle: saline with Tween-80
[14] = dose: 100.0 mg/kg/injection, schedule: Q01DX009 (ip), vehicle: Klucel (hydroxypropylcellulose) (HPC)
[15] = dose: 200.0 mg/kg/injection, schedule: Q01DX009 (ip), vehicle: Klucel (hydroxypropylcellulose) (HPC)
[16] = dose: 400.0 mg/kg/injection, schedule: Q01DX009 (ip), vehicle: Klucel (hydroxypropylcellulose) (HPC)
[17] = dose: 15.0 mg/kg/injection, schedule: Q01DX Z (ip), vehicle: saline
[18] = dose: 30.0 mg/kg/injection, schedule: Q01DX Z (ip), vehicle: saline
[19] = dose: 60.0 mg/kg/injection, schedule: Q01DX Z (ip), vehicle: saline
[20] = dose: 400.0 mg/kg/injection, schedule: Q01DX009 (ip), vehicle: saline with Tween-80

Measured: T/C

c1ccc(-c2oc(-c3ccccc3)c(-c3ccccc3)c2-c2ccccc2)cc1
inactive: [1] 93 % of control | [2] 93 % of control

CC1=C(C)C(=O)C(SC2CC(=O)OC2=O)=C(C)C1=O (stereo unspecified)
inactive: dose: 100.0 mg/kg/injection, schedule: Q01DX001 (ip), vehicle: saline with Tween-80 88 % of control

COC1OC2COC(c3ccccc3)OC2C(OC(=O)c2ccccc2)C1OC(=O)c1ccccc1 (stereo unspecified)
inactive: dose: 12.5 mg/kg/injection, schedule: Q04DX002 (ip), vehicle: Klucel (hydroxypropylcellulose) (HPC) 104 % of control | dose: 25.0 mg/kg/injection, schedule: Q04DX002 (ip), vehicle: Klucel (hydroxypropylcellulose) (HPC) 100 % of control | dose: 50.0 mg/kg/injection, schedule: Q04DX002 (ip), vehicle: Klucel (hydroxypropylcellulose) (HPC) 98 % of control

OCC(O)C(O)C(O)C1COC(CBr)O1 (stereo unspecified)
inactive: [3] 90 % of control | [4] 93 % of control | [5] 108 % of control

Cc1noc(/N=C(/C(=N/c2onc(C)c2C)c2ccccc2)c2ccccc2)c1C
inactive: [6] 97 % of control | [7] 103 % of control | [8] 97 % of control

COc1ccc(NC(=O)OCCN(CCOC(=O)Nc2ccc(OC)cc2)c2cccc(C)c2)cc1
inactive: [9] 100 % of control | [10] 90 % of control | [11] 90 % of control

CC(C)c1ccc([N+](=O)[O-])cc1
inactive: [12] 96 % of control | [13] 106 % of control

CC(=O)Nc1ccc(C(=O)O)cc1
inactive: [3] 88 % of control | [4] 92 % of control | [5] 111 % of control

O=c1c2cc([N+](=O)[O-])cc3c2-c2c4c(cc([N+](=O)[O-])cc14)c(O)c1cc([N+](=O)[O-])cc(c3=O)c21
inactive: dose: 100.0 mg/kg/injection, schedule: Q04DX003 (ip), vehicle: acetone 123 % of control | dose: 200.0 mg/kg/injection, schedule: Q04DX003 (ip), vehicle: acetone 120 % of control | dose: 266.0 mg/kg/injection, schedule: Q04DX003 (ip), vehicle: saline 111 % of control | dose: 400.0 mg/kg/injection, schedule: Q04DX003 (ip), vehicle: saline 116 % of control

O=C(O)COc1ccc(Cl)cc1CC(Cl)CCl (stereo unspecified)
inactive: dose: 25.0 mg/kg/injection, schedule: Q01DX009 (ip), vehicle: Klucel (hydroxypropylcellulose) (HPC) 97 % of control | dose: 50.0 mg/kg/injection, schedule: Q01DX009 (ip), vehicle: Klucel (hydroxypropylcellulose) (HPC) 119 % of control | [14] 97 % of control and 100 % of control

Cc1cc(OCCOC(=O)Nc2ccccc2F)cc(C)c1Cl
inactive: [14] 93 % of control | [15] 101 % of control | [16] 103 % of control

CCCCCCN(CCCCCC)CC(=O)Nc1ccc(S(=O)(=O)c2ccc(NC(=O)CN(CCCCCC)CCCCCC)cc2)cc1
inactive: dose: 25.0 mg/kg/injection, schedule: Q01DX001 (ip), vehicle: carboxymethylcellulose (CMC) 114 % of control | dose: 50.0 mg/kg/injection, schedule: Q01DX001 (ip), vehicle: carboxymethylcellulose (CMC) 97 % of control

c1ccc(Cc2cccc[n+]2Cc2ccccc2)cc1
inactive: dose: 12.5 mg/kg/injection, schedule: Q04DX003 (ip), vehicle: saline 102 % of control | dose: 25.0 mg/kg/injection, schedule: Q04DX003 (ip), vehicle: saline 105 % of control

CN/N=C1\CCC2C3CCc4cc(O)ccc4C3CCC12C (stereo unspecified)
inactive: [14] 95 % of control | [15] 89 % of control

O=C(C=C(C(F)(F)F)C(F)(F)F)/C=C/c1ccccc1
inactive: dose: 1.0 mg/kg/injection, schedule: Q01DX009 (ip), vehicle: other 97 % of control | dose: 2.0 mg/kg/injection, schedule: Q01DX009 (ip), vehicle: other 109 % of control | dose: 2.5 mg/kg/injection, schedule: Q04DX003 (ip), vehicle: other 97 % of control | dose: 3.13 mg/kg/injection, schedule: Q01DX009 (ip), vehicle: other 102 % of control | dose: 4.0 mg/kg/injection, schedule: Q01DX009 (ip), vehicle: other 97 % of control | dose: 5.0 mg/kg/injection, schedule: Q04DX003 (ip), vehicle: other 97 % of control | dose: 10.0 mg/kg/injection, schedule: Q04DX003 (ip), vehicle: other 92 % of control | dose: 12.5 mg/kg/injection, schedule: Q04DX003 (ip), vehicle: other 88 % of control

CC(/C=N\N)=N\N
inactive: [17] 91 % of control | dose: 15.0 mg/kg/injection, schedule: Q01DX Z (oral), vehicle: saline 101 % of control | [18] 108 % of control | dose: 30.0 mg/kg/injection, schedule: Q01DX Z (oral), vehicle: saline 116 % of control | [19] 91 % of control

CC(C)(C)OC(=O)c1ccc(C#N)cc1
inactive: dose: 100.0 mg/kg/injection, schedule: Q01DX001 (ip), vehicle: carboxymethylcellulose (CMC) 96 % of control | dose: 200.0 mg/kg/injection, schedule: Q01DX001 (ip), vehicle: carboxymethylcellulose (CMC) 100 % of control | dose: 400.0 mg/kg/injection, schedule: Q01DX001 (ip), vehicle: carboxymethylcellulose (CMC) 100 % of control

O=C1C=CC(=Nc2ccccc2Cl)O1
inactive: [12] 95 % of control | [13] 93 % of control | [20] 94 % of control

COC(=O)CN(c1ccc(C#N)c2ccccc12)S(=O)(=O)c1ccccc1
inactive: [1] 94 % of control | dose: 200.0 mg/kg/injection, schedule: Q04DX003 (ip), vehicle: saline with Tween-80 96 % of control | [2] 94 % of control

CC12CCC(O)CC1CCC1C2CCC2(C)C(C(=O)CO)CCC12 (stereo unspecified)
inactive: dose: 100.0 mg/kg/injection, schedule: Q01DX001 (sc), vehicle: steriod suspending solution 103 % of control | dose: 200.0 mg/kg/injection, schedule: Q01DX001 (sc), vehicle: steriod suspending solution 103 % of control | dose: 400.0 mg/kg/injection, schedule: Q01DX001 (sc), vehicle: steriod suspending solution 101 % of control

Nc1ccccc1Oc1ccccc1
inactive: [14] 94 % of control | [6] 97 % of control | [15] 97 % of control | [7] 98 % of control | [16] 100 % of control | [8] 101 % of control

C=CCOC(=O)C(F)(F)F
inactive: dose: 100.0 mg/kg/injection, schedule: Q04DX002 (ip), vehicle: saline 89 % of control | dose: 200.0 mg/kg/injection, schedule: Q04DX002 (ip), vehicle: saline 86 % of control

CCCCNC(=O)n1ncc2ccc([N+](=O)[O-])cc21
inactive: [9] 105 % of control | [10] 105 % of control | [11] 102 % of control

CCN(C(=O)c1ccc([N+](=O)[O-])cc1)C(c1ccccc1)P(=O)(c1ccccc1)c1ccccc1 (stereo unspecified)
inactive: dose: 100.0 mg/kg/injection, schedule: Q04DX002 (ip), vehicle: saline with Tween-80 89 % of control | [13] 95 % of control | dose: 400.0 mg/kg/injection, schedule: Q04DX002 (ip), vehicle: saline with Tween-80 88 % of control

FC(F)(F)c1ccc(C2=Nc3cccc4cccc(c34)N2)cc1
inactive: [17] 105 % of control | [18] 112 % of control | [19] 110 % of control | dose: 120.0 mg/kg/injection, schedule: Q01DX Z (ip), vehicle: saline 98 % of control | dose: 120.0 mg/kg/injection, schedule: Q01DX Z (oral), vehicle: saline 105 % of control | dose: 240.0 mg/kg/injection, schedule: Q01DX Z (ip), vehicle: saline 97 % of control | dose: 240.0 mg/kg/injection, schedule: Q01DX Z (oral), vehicle: saline 118 % of control | dose: 480.0 mg/kg/injection, schedule: Q01DX Z (ip), vehicle: saline 86 % of control | dose: 480.0 mg/kg/injection, schedule: Q01DX Z (oral), vehicle: saline 106 % of control | dose: 960.0 mg/kg/injection, schedule: Q01DX Z (oral), vehicle: saline 91 % of control

COc1ccc(C(O)(c2ccccc2)C(OC(=O)c2cc([N+](=O)[O-])cc([N+](=O)[O-])c2)c2ccccc2)cc1 (stereo unspecified)
inactive: [12] 91 % of control | [13] 96 % of control | [20] 95 % of control

CC(=O)Nc1ccc(S(=O)(=O)Nc2ccc(F)cc2)cc1
inactive: [14] 96 % of control | [15] 98 % of control | [16] 102 % of control
